Results as given in ChEMBL document CHEMBL4814042, “Design and synthesis of C-aryl angular luotonins via a one-pot aza-Nazarov-Friedlander sequence and their Topo-I inhibition studies along with C-aryl vasicinones and luotonins” (Bioorg Med Chem Lett, 2021).
Active and inactive are the calls of the source. No cut-off for these calls is given here.

target: T1, DNA topoisomerase 1 (Homo sapiens) (UniProt P11387); experiment: Inhibition of human Topoisomerase 1 at 0.1 to 100 uM; details: dose 0.1-100 µM
T1 sequence (whole entry): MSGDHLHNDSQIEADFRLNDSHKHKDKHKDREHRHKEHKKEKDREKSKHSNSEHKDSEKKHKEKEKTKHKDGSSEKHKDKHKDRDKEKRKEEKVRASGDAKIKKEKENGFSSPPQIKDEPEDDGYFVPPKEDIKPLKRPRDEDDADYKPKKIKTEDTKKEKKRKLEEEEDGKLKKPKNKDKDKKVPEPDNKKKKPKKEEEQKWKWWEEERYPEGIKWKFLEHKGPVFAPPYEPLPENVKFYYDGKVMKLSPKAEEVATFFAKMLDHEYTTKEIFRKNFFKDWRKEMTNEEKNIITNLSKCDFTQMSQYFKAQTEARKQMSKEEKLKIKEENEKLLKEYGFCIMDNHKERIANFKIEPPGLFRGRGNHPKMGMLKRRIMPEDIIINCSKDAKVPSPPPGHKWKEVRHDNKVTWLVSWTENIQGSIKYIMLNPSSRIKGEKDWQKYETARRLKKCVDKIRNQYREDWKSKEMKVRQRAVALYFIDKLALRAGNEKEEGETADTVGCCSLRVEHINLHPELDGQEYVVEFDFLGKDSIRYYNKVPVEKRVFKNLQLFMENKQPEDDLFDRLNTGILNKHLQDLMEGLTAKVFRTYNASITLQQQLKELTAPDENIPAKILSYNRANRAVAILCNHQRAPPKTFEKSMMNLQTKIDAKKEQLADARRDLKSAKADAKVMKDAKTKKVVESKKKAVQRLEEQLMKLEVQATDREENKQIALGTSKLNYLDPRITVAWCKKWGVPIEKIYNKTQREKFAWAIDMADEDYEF

inhibition	SMILES
Active	O=c1c2ccccc2nc2n1C(c1ccc(C(F)(F)F)cc1)c1cc3ccccc3nc1-2 (configuration not stated)
Active	Cc1ccccc1C1c2cc3ccccc3nc2-c2nc(=O)c3ccccc3n21 (configuration not stated)
Active	O=c1nc2n(c3ccccc13)C(c1ccc(F)cc1)c1cc3ccccc3nc1-2 (configuration not stated)
Active	O=c1nc2n(c3ccccc13)C(c1ccccc1)c1cc3ccccc3nc1-2 (configuration not stated)
Active	O=c1nc2n(c3ccccc13)C(c1cccc(Br)c1)c1cc3ccccc3nc1-2 (configuration not stated)
Active	CSc1ccc(C2c3cc4ccccc4nc3-c3nc4ccccc4c(=O)n32)cc1 (configuration not stated)
Active	COc1cccc(C2c3cc4ccccc4nc3-c3nc4ccccc4c(=O)n32)c1 (configuration not stated)
Active	O=c1c2ccccc2nc2n1C(c1ccc(Cl)cc1)c1cc3ccccc3nc1-2 (configuration not stated)
Active	O=c1c2ccccc2nc2n1C(c1ccc(F)cc1)c1cc3ccccc3nc1-2 (configuration not stated)
Active	COc1cccc(C2c3cc4ccccc4nc3-c3nc(=O)c4ccccc4n32)c1 (configuration not stated)
Active	O=c1nc2n(c3ccccc13)C(c1ccc(Cl)cc1)c1cc3ccccc3nc1-2 (configuration not stated)
Active	O=c1c2ccccc2nc2n1C(c1ccccc1)c1cc3ccccc3nc1-2 (configuration not stated)
Active	O=c1c2ccccc2nc2n1C(c1ccc(Br)cc1)c1cc3ccccc3nc1-2 (configuration not stated)
Active	COc1cc(C2c3cc4ccccc4nc3-c3nc(=O)c4ccccc4n32)cc(OC)c1OC (configuration not stated)
Active	COc1ccc(C2c3cc4ccccc4nc3-c3nc4ccccc4c(=O)n32)cc1 (configuration not stated)
Active	Cc1ccc(C2c3cc4ccccc4nc3-c3nc4ccccc4c(=O)n32)cc1 (configuration not stated)
Active	O=c1c2ccccc2nc2n1C(c1cccc(Br)c1)c1cc3ccccc3nc1-2 (configuration not stated)
Active	Cc1ccc(C2c3cc4ccccc4nc3-c3nc(=O)c4ccccc4n32)cc1 (configuration not stated)
Active	O=c1nc2n(c3ccccc13)C(c1ccc(C(F)(F)F)cc1)c1cc3ccccc3nc1-2 (configuration not stated)
Active	COc1ccc(C2c3cc4ccccc4nc3-c3nc(=O)c4ccccc4n32)cc1 (configuration not stated)
Active	Cc1ccccc1C1c2cc3ccccc3nc2-c2nc3ccccc3c(=O)n21 (configuration not stated)
Active	O=c1nc2n(c3ccccc13)C(c1ccc(Br)cc1)c1cc3ccccc3nc1-2 (configuration not stated)
Active	COc1cc(C2c3cc4ccccc4nc3-c3nc4ccccc4c(=O)n32)cc(OC)c1OC (configuration not stated)
Active	CSc1ccc(C2c3cc4ccccc4nc3-c3nc(=O)c4ccccc4n32)cc1 (configuration not stated)

target: T1, DNA topoisomerase 1 (Homo sapiens); experiment: Inhibition of human Topoisomerase 1 at 100 uM; details: not given

inhibition	SMILES
Active	O=c1c2ccccc2nc2n1[C@H](c1ccc(C(F)(F)F)cc1)C[C@@H]2O

target: T1, DNA topoisomerase 1 (Homo sapiens); experiment: Inhibition of human Topoisomerase 1 at 10 to 100 uM; details: dose 10-100 µM

inhibition	SMILES
Active	O=c1c2ccccc2nc2n1[C@H](c1cccc(Br)c1)C[C@@H]2O

target: T1, DNA topoisomerase 1 (Homo sapiens); experiment: Inhibition of human Topoisomerase 1 at 1 to 100 uM; details: dose 1-100 µM

inhibition	SMILES
Active	CSc1ccc([C@@H]2C[C@H](O)c3nc4ccccc4c(=O)n32)cc1
